Publication PMC9536293, “Targeting extracellular matrix remodeling sensitizes glioblastoma to ionizing radiation” (Neuro-Oncology Advances, 2022)

B1: recombinant MMP2: Recombinant MMP2 purchased from R&D Systems, used at 10 ng/ml (protein, UniProt P08253 110-660, looked up)
72 kDa type IV collagenase: YNFFPRKPKWDKNQITYRIIGYTPDLDPETVDDAFARAFQVWSDVTPLRFSRIHDGEADIMINFGRWEHGDGYPFDGKDGLLAHAFAPGTGVGGDSHFDDDELWTLGEGQVVRVKYGNADGEYCKFPFLFNGKEYNSCTDTGRSDGFLWCSTTYNFEKDGKYGFCPHEALFTMGGNAEGQPCKFPFRFQGTSYDSCTTEGRTDGYRWCGTTEDYDRDKKYGFCPETAMSTVGGNSEGAPCVFPFTFLGNKYESCTSAGRSDGKMWCATTANYDDDRKWGFCPDQGYSLFLVAAHEFGHAMGLEHSQDPGALMAPIYTYTKNFRLSQDDIKGIQELYGASPDIDLGTGPTPTLGPVTPEICKQDIVFDGIAQIRGEIFFFKDRFIWRTVTPRDKPMGPLLVATFWPELPEKIDAVYEAPQEEKAVFFAGNEYWIYSASTLERGYPKPLTSLGLPPDVQRVDAAFNWSKNKKTYIFAGDKFWRYNEVKKKMDPGFPKLIADAWNAIPDNLDAVVDLQGGGHSYFFKGAYYLKLENQSLKSVKFGSIKSDWLGC

Columns and labels:
Glioblastoma (GBM) = system: Glioblastoma (GBM); design: method as in PMID 32478924; details: added to radiotherapy; GBM patients; on average; cited from earlier work
913-GSCs = experiment: Invasion through a Matrigel/HA matrix (XCELLigence); format: cell-based, human; details: shMT1-MMP 913-GSCs; 10 ng/ml
Protocol: XCELLigence.—Invasion was performed as per the manufacturer’s instructions. Briefly, 10^4 913-GSCs and GBM1 cells were plated on top of uncoated or 0.4% Growth Factor Reduced Matrigel/10 µg/ml hyaluronic acid (HA) coated wells (CIM plate 16). HA was used as it is a major component of brain ECM. Cells were left at room temperature for 30 min to settle and then the plates were placed into an xCELLigence RTCA DP instrument (ACEA Bioscience). Measurements were taken every 15 min for 48 h or up to 6 days. Cell Index (CI) curves normalized to initial seeding were recorded. 3D Decellularized Brain matrix: 10^4 913-GSC cells were embedded in a 3D decellularized mouse brain matrix, derived as in,[16],[17] which retains the architecture and major components of brain ECM. Briefly, Nu/nu mouse brains were cut into small pieces and submerged in decellularizing solution [0.1% (v/v) ammonium hydroxide (Sigma) and 1% (v/v) Triton X-100 (Sigma) in distilled water] for 2 days. After washing in distilled water, the derived ECM was digested with pepsin (1 mg/ml; Sigma) in HCl (0.01 N) for 2 days at room temperature until visible ECM particle disappeared. To make hydrogels, the ECM solution was mixed with 10 × PBS, dilute to the desired final concentration (20 mg/ml) with ice-cold distilled water and adjust to pH7 by NaOH (1 M). […] Invadopodia length was measured and quantified with ImageJ.

Row | Molecule | increase in survival compared to radiotherapy alone (Glioblastoma (GBM)) [months] | invasion of MT1-MMP depleted cells through Matrigel/HA matrix (913-GSCs)
1 | Cn1nnc2c(C(N)=O)ncn2c1=O [TMZ, temozolomide] | 2.5 | 
2 | B1 |  | restored the cells invasive capacity to the levels of controls
